Patent publication US20260345641A1, “COMPOSITIONS AND USES THEREOF” (Algorae Pharmaceuticals Ltd, priority 2023, published 2026)

Test system: SH-SY5Y cells
Assay: Gene expression analysis by RNA sequencing in the presence of Aβ
Type: cell-based, human
Conditions: 5 μM, with Aβ
Source text: The SH-S5Y5 neuroblastoma cell line was used for pre-clinical analysis. The SH-S5Y5 cell line is commonly used as a model for neurodegenerative disorders as the cells can be converted to various types of functional neurons by the addition of specific compounds (see, e.g., Xicoy et al., 2017, Molecular Neurodegeneration, 12: 10). In addition, the SH-S5Y5 cell line has been used widely in experimental neurological studies, including analysis of neuronal differentiation, metabolism, and function related to neurodegenerative processes, neurotoxicity and neuroprotection (see, e.g., Datki et al., 2003, Brain Research Bulletin, 62(3): 22-229; and Xie et al., 2010, Chinese Medical Journal, 123(8): 1086-1092).
Total RNA was isolated from cells using TRIzol in accordance with the manufacturer's instructions (Invitrogen, Carlsbad, CA, USA). RNA concentration and quality was assessed using a NanoDrop spectrophotometer. Only samples with a 260/280 ratio of ≥1.8 were used for further analysis.
Messenger RNA (mRNA) was purified from total RNA using poly-T oligo attached magnetic beads. After fragmentation, cDNA synthesis was performed in accordance with the manufacturer's instructions (Illumina, San Diego, CA, USA) to generate a directional and non-directional library. Libraries were checked with Qubit, real-time PCR was performed for quantification, and size distribution detection was performed using the Bioanalyzer. Quantified libraries were pooled and sequenced on an Illumina platform, according to the manufacturer's instructions.
Raw reads were filtered and mapped to human reference genome (GRCh38/hg38) using HISAT2. Differential gene expression analysis was performed using R Package DEG seq2. […] Manual annotation of genes previously associated with specific neurodegenerative disorders and dementias was performed following a text mining analysis.

COc1cc2c(cc1OC)C(=O)C(CC1CCN(Cc3ccccc3)CC1)C2 (stereo not shown) [Donepezil]
MEG3 gene expression (control 0.007, P 0.038): 0.008 | SAMD12 gene expression (control 0.011, P 0.052): 0.002 | TNF gene expression (control 0.032, P 0.046): 0.026 | ATXN7 gene expression (control 0.042, P 0.014): 0.150 | PRICKLE2 gene expression (control 0.060, P 0.007): 0.085 | IRF4 gene expression (control 0.076, P 0.050): 0.010 | NRXN1 gene expression (control 0.085, P 0.007): 0.125 | DNAH8 gene expression (control 0.090, P 0.017): 0.009 | MME gene expression (control 0.091, P 0.004): 0.240 | CLN3 gene expression (control 0.092, P 0.051): 0.093 | DMD gene expression (control 0.166, P 0.017): 0.352 | PPP2R2B gene expression (control 0.179, P 0.056): 0.146 | PRSS23 gene expression (control 0.196, P 0.022): 0.193 | ACE gene expression (control 0.209, P 0.004): 0.644 | A2M gene expression (control 0.242, P 0.006): 0.122 | TCIRG1 gene expression (control 0.302, P 0.023): 0.340 | SLC1A1 gene expression (control 0.314, P 0.003): 0.482 | NTNG1 gene expression (control 0.327, P 0.009): 0.249 | NTRK2 gene expression (control 0.329, P 0.015): 0.700 | PIH1D2 gene expression (control 0.334, P 0.023): 0.137 | TUBA4A gene expression (control 0.334, P 0.053): 0.432 | FGFR2 gene expression (control 0.353, P 0.053): 0.228 | PDE11A gene expression (control 0.366, P 0.020): 0.416 | TUNAR gene expression (control 0.382, P 0.009): 0.441 | RETREG1 gene expression (control 0.386, P 0.001): 0.774 | SORL1 gene expression (control 0.455, P 0.009): 0.683 | DPY19L2P2 gene expression (control 0.469, P 0.040): 0.560 | TRIM9 gene expression (control 0.529, P 0.008): 1.021 | MATR3 gene expression (control 0.559, P 0.001): 0.511 | SYCE2 gene expression (control 0.567, P 0.049): 0.604 | PLA2G6 gene expression (control 0.634, P 0.016): 0.830 | DEPDC5 gene expression (control 0.656, P 0.020): 0.683 | CLN5 gene expression (control 0.695, P 0.004): 0.652 | SLC9B1 gene expression (control 0.735, P 0.053): 0.713 | PLAU gene expression (control 0.799, P 0.005): 1.790 | ATXN1 gene expression (control 0.851, P 0.002): 1.152 | IRAK1BP1 gene expression (control 0.866, P 0.030): 0.848 | PRPH gene expression (control 0.870, P 0.011): 1.132 | FHIT gene expression (control 0.882, P 0.033): 1.086 | CFAP43 gene expression (control 0.931, P 0.049): 0.636 | TMEM63A gene expression (control 0.954, P 0.055): 1.141 | LRRC56 gene expression (control 0.982, P 0.002): 1.129 | PARD3B gene expression (control 0.986, P 0.002): 1.168 | ADCY5 gene expression (control 1.228, P 0.036): 1.662 | DISC1 gene expression (control 1.302, P 0.033): 1.242 | KCNT1 gene expression (control 1.355, P 0.002): 1.707 | GAN gene expression (control 1.529, P 0.018): 1.495 | DPP10 gene expression (control 1.590, P 0.009): 1.562 | CHRNB4 gene expression (control 1.624, P 0.018): 2.920 | MEF2C gene expression (control 1.668, P 0.044): 1.624 | PACRG gene expression (control 1.720, P 0.027): 1.797 | CDKL5 gene expression (control 1.735, P 0.001): 2.077 | SIL1 gene expression (control 1.736, P 0.021): 1.886 | PDLIM3 gene expression (control 1.777, P 0.026): 3.231 | MT-TH gene expression (control 1.782, P 0.047): 0.388 | MT-TD gene expression (control 1.849, P 0.032): 2.334 | MMACHC gene expression (control 1.874, P 0.018): 1.731 | ZFYVE26 gene expression (control 1.909, P 0.032): 1.930 | TMLHE gene expression (control 1.915, P 0.004): 2.188 | MAPT gene expression (control 1.915, P 0.007): 2.615 | MSRA gene expression (control 1.969, P 0.027): 1.709 | COQ2 gene expression (control 1.970, P 0.055): 1.406 | PINK1-AS gene expression (control 1.974, P 0.029): 1.689 | DLG2 gene expression (control 1.977, P 0.041): 2.816 | FZD3 gene expression (control 1.990, P 0.010): 2.276 | KATNAL2 gene expression (control 2.005, P 0.000): 2.056 | ALMS1 gene expression (control 2.170, P 0.003): 2.220 | HOTAIR gene expression (control 2.219, P 0.008): 1.982 | SETD1B gene expression (control 2.501, P 0.005): 3.039 | DRD2 gene expression (control 2.532, P 0.031): 4.790 | SMARCA2 gene expression (control 2.546, P 0.044): 2.658 | MFSD8 gene expression (control 2.553, P 0.038): 2.381 | BDNF gene expression (control 2.554, P 0.014): 0.255 | ABCA7 gene expression (control 2.607, P 0.032): 2.087 | FSD1L gene expression (control 2.639, P 0.002): 2.451 | ROGDI gene expression (control 2.747, P 0.055): 3.041 | SPG7 gene expression (control 2.790, P 0.011): 2.471 | MT-TW gene expression (control 2.846, P 0.019): 2.620 | ATP1A3 gene expression (control 2.847, P 0.021): 3.739 | ATL1 gene expression (control 2.891, P 0.027): 3.208 | GM2A gene expression (control 2.985, P 0.005): 5.621 | LYST gene expression (control 3.000, P 0.053): 2.468 | APOL2 gene expression (control 3.111, P 0.054): 3.390 | DCX gene expression (control 3.114, P 0.003): 3.488 | IFT74 gene expression (control 3.453, P 0.032): 4.207 | CLN8 gene expression (control 3.580, P 0.014): 2.847 | RBM12 gene expression (control 3.638, P 0.000): 3.884 | PRICKLE1 gene expression (control 3.757, P 0.002): 3.333 | DPH1 gene expression (control 3.762, P 0.040): 3.962 | TRAPPC9 gene expression (control 3.776, P 0.021): 4.781 | EIF2B3 gene expression (control 3.828, P 0.043): 3.200 | PDE10A gene expression (control 3.855, P 0.030): 3.147 | TRAPPC2 gene expression (control 3.872, P 0.053): 4.012 | C9orf72 gene expression (control 3.921, P 0.001): 8.663 | TFEB gene expression (control 4.181, P 0.001): 2.618 | PODXL gene expression (control 4.194, P 0.011): 4.847 | ATP6V0A2 gene expression (control 4.281, P 0.017): 4.607 | TTC21B gene expression (control 4.351, P 0.026): 4.248 | VPS13D gene expression (control 4.370, P 0.001): 4.565 | PIGQ gene expression (control 4.438, P 0.008): 4.983 | PTPRM gene expression (control 4.505, P 0.000): 4.710 | RHOBTB2 gene expression (control 4.522, P 0.012): 5.349 | MRE11 gene expression (control 4.546, P 0.036): 4.436 | EHMT1 gene expression (control 4.566, P 0.010): 4.445 | CYLD gene expression (control 4.607, P 0.036): 3.887 | PRDM8 gene expression (control 4.779, P 0.013): 3.461 | RNF213 gene expression (control 4.801, P 0.002): 5.276 | USP8 gene expression (control 4.840, P 0.047): 3.827 | LIG3 gene expression (control 4.935, P 0.007): 5.232 | MIAT gene expression (control 5.041, P 0.014): 6.814 | JAM2 gene expression (control 5.256, P 0.040): 4.131 | PSEN2 gene expression (control 5.259, P 0.051): 5.579 | LMBRD1 gene expression (control 5.367, P 0.022): 5.309 | NPC1 gene expression (control 5.515, P 0.001): 6.062 | OPA1 gene expression (control 5.517, P 0.001): 9.622 | VAPB gene expression (control 5.611, P 0.005): 5.235 | ANXA11 gene expression (control 5.661, P 0.025): 6.974 | MT-TI gene expression (control 5.685, P 0.038): 4.404 | GOSR2 gene expression (control 5.846, P 0.000): 5.640 | LDLR gene expression (control 5.953, P 0.003): 7.563 | DDHD2 gene expression (control 6.006, P 0.000): 6.144 | SREBF1 gene expression (control 6.248, P 0.024): 8.317 | SLC25A24 gene expression (control 6.258, P 0.036): 5.685 | CREB1 gene expression (control 6.333, P 0.006): 7.340 | FIG4 gene expression (control 6.430, P 0.051): 6.116 | BLMH gene expression (control 6.516, P 0.013): 6.896 | APTX gene expression (control 6.525, P 0.011): 6.767 | TPP1 gene expression (control 6.541, P 0.009): 7.171 | ADAM10 gene expression (control 6.563, P 0.019): 5.824 | MT-TA gene expression (control 6.758, P 0.027): 2.804 | RAB33A gene expression (control 6.793, P 0.003): 6.922 | MT-TC gene expression (control 6.838, P 0.052): 10.995 | MECP2 gene expression (control 6.880, P 0.033): 5.530 | SPAST gene expression (control 6.944, P 0.053): 5.978 | TMEM106B gene expression (control 7.108, P 0.005): 6.957 | CRAT gene expression (control 7.227, P 0.031): 9.692 | CSTB gene expression (control 7.261, P 0.008): 9.549 | IRF6 gene expression (control 7.365, P 0.000): 5.933 | TRPM7 gene expression (control 7.393, P 0.030): 5.958 | OTUD6B gene expression (control 7.405, P 0.048): 6.534 | MAPK8 gene expression (control 7.482, P 0.022): 9.392 | POLR1C gene expression (control 7.525, P 0.034): 6.234 | CHCHD10 gene expression (control 7.586, P 0.010): 11.163 | ATL3 gene expression (control 7.656, P 0.030): 6.616 | WDR37 gene expression (control 7.709, P 0.023): 7.870
